Earlier results as cited in patent publication US20110243859A1, “ENCAPSULATING SYSTEM FOR CEST IMAGING WITH CHELATE Q GREATER THAN OR EQUAL TO 2” (GUERBET, priority 2008, published 2011).

Assays:
[1] = monomeric chelate
[2] = spherical liposome, maximum accessible concentration inside

| Molecule | Value q [1] | Delta shift value [2] [ppm] |
| --- | --- | --- |
| CC1(N(CC(=O)O)CC(=O)O)CN(CC(=O)O)CCN(CC(=O)O)C1 [AAZTA] | 2 | – |
| O=C(O)CN1CCNCCN(CC(=O)O)CCNCC1 [DO2A] | 3 | – |
| O=C(O)CN1CCNCCN(CC(=O)O)CCN(CC(=O)O)CC1 [DO3A] | 2 | – |
| CC(C(=O)O)N1CCNCCN(C(C)C(=O)O)CCN(C(C)C(=O)O)CC1 (stereo not drawn) [DO3MA] | 2 | – |
| O=C(O)CN1CCN(CC(=O)O)CCN(CC(=O)O)CCN(CC(=O)O)CC1 [DOTA] | 1 | – |
| CC(O)CN1CCN(CC(=O)[O-])CCN(CC(=O)[O-])CCN(CC(=O)[O-])CC1.[Tm+3] (stereo not drawn) [HP-DO3A-Tm] | – | 3.5 |
| CC(O)CN1CCN(CC(=O)O)CCN(CC(=O)O)CCN(CC(=O)O)CC1 (stereo not drawn) [HP-DO3A] | 1 | – |
| CC(CN(CC(=O)O)CC(=O)O)N(CC(=O)O)CC(=O)O (stereo not drawn) [MeDTA] | 2 | – |
| CC(C(=O)O)N1CCN(C(C)C(=O)O)CCN(C(C)C(=O)O)CC1 (stereo not drawn) [NOTMA] | 2 | – |
| O=C(O)CN1CCN(CC(=O)O)Cc2cccc(n2)CN(CC(=O)O)CC1 [PCTA] | 2 | – |
| NC1C(O)C(N)C(O)C(N)C1O (stereo not drawn) [Taci] | 2 | – |
| texaphyrin [Tx] | 3.5 | – |
